Columns and labels:
Test in all cases: KINOMEscan competition binding
Conditions in all cases: compound 10.0 µM
[1] = molecular target: EIF2AK2 (human) (UniProt P19525)
[2] = molecular target: TNK2 (human) (UniProt Q07912)
[3] = molecular target: RPS6KA6 KD2 (human) (UniProt Q9UK32)
[4] = molecular target: LATS1 (human) (UniProt O95835)
[5] = molecular target: CSNK1A1L (human) (UniProt Q8N752)
[6] = molecular target: DYRK1B (human) (UniProt Q9Y463)
[7] = molecular target: CSNK2A1 (human) (UniProt P68400)
[8] = molecular target: FLT1 (human) (UniProt P17948)
[9] = molecular target: MAP4K4 (human) (UniProt O95819)
[10] = molecular target: NUAK1 (human) (UniProt O60285)
[11] = molecular target: MAPK10 (human) (UniProt P53779)
[12] = molecular target: CLK1 (human) (UniProt P49759)
[13] = molecular target: MAP2K4 (human) (UniProt P45985)
[14] = molecular target: TYK2 JH1 catalytic (human) (UniProt P29597)
[15] = system: EGFR (human), P00533 [A750P; 747-749 del]
[16] = molecular target: PIK3CA (human) (UniProt P42336)
[17] = molecular target: TEC (human) (UniProt P42680)
[18] = molecular target: MYLK3 (human) (UniProt Q32MK0)
[19] = molecular target: MERTK (human) (UniProt Q12866)
[20] = molecular target: ULK2 (human) (UniProt Q8IYT8)
[21] = molecular target: LIMK2 (human) (UniProt P53671)
[22] = molecular target: NTRK1 (human) (UniProt P04629)
[23] = molecular target: CDK2 (human) (UniProt P24941)
[24] = molecular target: STK10 (human) (UniProt O94804)
[25] = molecular target: RPS6KA2 KD2 (human) (UniProt Q15349)
[26] = molecular target: MARK3 (human) (UniProt P27448)
[27] = molecular target: EGFR (human) (UniProt P00533)
[28] = molecular target: MST4 (human) (UniProt Q9P289)
[29] = molecular target: EPHA7 (human) (UniProt Q15375)
[30] = molecular target: RPS6KA4 KD2 (human) (UniProt O75676)
[31] = molecular target: CAMK1D (human) (UniProt Q8IU85)
[32] = molecular target: PAK4 (human) (UniProt O96013)
[33] = molecular target: SRC (human) (UniProt P12931)
[34] = molecular target: MAPK6 (human) (UniProt Q16659)
[35] = system: BMX (human), P51813 [V600E]
Sequence of BMX (human), P51813 [V600E] (P51813 whole entry, looked up, stated change not applied): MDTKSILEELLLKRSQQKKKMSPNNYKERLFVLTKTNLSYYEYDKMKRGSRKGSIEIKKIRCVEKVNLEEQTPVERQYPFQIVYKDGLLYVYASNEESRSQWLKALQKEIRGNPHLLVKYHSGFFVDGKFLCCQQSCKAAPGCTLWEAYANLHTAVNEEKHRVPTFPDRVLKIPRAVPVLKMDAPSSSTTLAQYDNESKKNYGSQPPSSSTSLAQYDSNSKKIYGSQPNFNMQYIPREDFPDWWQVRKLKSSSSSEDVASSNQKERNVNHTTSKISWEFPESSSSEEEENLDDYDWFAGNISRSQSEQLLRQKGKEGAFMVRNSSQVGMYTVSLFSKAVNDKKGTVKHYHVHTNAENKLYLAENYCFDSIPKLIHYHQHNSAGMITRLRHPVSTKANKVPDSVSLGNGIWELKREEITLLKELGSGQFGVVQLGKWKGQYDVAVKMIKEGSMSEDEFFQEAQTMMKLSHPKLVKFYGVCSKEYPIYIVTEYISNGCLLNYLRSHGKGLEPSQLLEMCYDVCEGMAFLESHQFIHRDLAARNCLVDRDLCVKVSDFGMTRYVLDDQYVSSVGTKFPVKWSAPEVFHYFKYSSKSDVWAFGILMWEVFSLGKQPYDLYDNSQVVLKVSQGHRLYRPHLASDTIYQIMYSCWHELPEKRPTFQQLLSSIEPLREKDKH

Sequence of LATS1 (human) (O95835 whole entry, looked up): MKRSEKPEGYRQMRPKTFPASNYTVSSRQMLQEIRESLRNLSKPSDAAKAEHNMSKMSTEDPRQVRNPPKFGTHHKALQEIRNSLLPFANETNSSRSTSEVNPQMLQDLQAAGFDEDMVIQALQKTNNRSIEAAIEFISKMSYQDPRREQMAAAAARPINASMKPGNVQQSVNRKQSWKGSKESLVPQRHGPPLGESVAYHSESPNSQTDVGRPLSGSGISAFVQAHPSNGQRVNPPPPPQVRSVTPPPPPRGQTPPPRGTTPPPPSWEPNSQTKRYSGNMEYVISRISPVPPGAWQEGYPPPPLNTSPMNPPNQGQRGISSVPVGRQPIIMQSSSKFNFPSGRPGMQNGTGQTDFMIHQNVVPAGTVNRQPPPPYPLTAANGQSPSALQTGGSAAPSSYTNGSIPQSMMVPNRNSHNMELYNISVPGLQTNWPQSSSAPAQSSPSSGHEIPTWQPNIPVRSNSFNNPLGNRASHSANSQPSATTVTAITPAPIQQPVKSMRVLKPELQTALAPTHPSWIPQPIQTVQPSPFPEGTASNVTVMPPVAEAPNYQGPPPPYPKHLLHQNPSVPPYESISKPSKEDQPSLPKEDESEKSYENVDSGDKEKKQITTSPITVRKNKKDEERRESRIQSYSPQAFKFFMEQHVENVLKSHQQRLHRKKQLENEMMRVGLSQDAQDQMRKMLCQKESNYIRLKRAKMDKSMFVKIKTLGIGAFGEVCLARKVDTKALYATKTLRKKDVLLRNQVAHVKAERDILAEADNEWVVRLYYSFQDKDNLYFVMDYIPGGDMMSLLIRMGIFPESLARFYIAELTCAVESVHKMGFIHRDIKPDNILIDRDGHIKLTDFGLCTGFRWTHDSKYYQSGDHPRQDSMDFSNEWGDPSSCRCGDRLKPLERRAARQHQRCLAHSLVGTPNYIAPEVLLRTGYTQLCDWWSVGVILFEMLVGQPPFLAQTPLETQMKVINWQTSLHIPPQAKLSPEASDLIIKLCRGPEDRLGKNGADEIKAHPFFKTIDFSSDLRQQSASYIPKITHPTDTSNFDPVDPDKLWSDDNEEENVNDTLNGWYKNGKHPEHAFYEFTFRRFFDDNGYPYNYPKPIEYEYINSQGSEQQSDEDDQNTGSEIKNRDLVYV
Sequence of PIK3CA (human) (P42336 whole entry, looked up): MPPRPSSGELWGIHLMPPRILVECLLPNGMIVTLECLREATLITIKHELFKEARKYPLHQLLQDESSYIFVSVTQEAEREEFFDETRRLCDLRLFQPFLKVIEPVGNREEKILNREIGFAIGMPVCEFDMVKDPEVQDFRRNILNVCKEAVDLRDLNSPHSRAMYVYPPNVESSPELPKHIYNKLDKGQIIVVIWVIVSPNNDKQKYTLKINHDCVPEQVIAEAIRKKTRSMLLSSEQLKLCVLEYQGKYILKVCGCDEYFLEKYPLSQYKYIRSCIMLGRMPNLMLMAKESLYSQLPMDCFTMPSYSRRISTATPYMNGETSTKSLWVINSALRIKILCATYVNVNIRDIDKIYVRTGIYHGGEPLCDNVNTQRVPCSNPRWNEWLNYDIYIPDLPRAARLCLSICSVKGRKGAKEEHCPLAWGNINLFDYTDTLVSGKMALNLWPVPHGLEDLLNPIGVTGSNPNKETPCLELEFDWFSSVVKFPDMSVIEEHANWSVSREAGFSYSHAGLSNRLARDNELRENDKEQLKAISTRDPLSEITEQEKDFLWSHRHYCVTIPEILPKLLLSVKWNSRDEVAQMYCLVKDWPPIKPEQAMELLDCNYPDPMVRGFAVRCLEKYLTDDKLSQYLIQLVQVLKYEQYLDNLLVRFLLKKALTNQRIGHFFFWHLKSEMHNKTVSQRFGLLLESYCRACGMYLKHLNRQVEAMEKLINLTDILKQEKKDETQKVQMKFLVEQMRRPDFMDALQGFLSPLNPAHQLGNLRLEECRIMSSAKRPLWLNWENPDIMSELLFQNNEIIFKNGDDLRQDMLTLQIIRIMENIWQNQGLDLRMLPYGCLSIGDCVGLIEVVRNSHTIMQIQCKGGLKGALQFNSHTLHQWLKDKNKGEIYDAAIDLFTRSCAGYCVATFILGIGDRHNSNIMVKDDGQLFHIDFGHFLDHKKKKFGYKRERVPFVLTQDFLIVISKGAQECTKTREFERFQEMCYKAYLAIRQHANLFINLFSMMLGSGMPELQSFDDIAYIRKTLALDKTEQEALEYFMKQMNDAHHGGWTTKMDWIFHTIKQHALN
Sequence of TYK2 JH1 catalytic (human) (P29597 whole entry, looked up): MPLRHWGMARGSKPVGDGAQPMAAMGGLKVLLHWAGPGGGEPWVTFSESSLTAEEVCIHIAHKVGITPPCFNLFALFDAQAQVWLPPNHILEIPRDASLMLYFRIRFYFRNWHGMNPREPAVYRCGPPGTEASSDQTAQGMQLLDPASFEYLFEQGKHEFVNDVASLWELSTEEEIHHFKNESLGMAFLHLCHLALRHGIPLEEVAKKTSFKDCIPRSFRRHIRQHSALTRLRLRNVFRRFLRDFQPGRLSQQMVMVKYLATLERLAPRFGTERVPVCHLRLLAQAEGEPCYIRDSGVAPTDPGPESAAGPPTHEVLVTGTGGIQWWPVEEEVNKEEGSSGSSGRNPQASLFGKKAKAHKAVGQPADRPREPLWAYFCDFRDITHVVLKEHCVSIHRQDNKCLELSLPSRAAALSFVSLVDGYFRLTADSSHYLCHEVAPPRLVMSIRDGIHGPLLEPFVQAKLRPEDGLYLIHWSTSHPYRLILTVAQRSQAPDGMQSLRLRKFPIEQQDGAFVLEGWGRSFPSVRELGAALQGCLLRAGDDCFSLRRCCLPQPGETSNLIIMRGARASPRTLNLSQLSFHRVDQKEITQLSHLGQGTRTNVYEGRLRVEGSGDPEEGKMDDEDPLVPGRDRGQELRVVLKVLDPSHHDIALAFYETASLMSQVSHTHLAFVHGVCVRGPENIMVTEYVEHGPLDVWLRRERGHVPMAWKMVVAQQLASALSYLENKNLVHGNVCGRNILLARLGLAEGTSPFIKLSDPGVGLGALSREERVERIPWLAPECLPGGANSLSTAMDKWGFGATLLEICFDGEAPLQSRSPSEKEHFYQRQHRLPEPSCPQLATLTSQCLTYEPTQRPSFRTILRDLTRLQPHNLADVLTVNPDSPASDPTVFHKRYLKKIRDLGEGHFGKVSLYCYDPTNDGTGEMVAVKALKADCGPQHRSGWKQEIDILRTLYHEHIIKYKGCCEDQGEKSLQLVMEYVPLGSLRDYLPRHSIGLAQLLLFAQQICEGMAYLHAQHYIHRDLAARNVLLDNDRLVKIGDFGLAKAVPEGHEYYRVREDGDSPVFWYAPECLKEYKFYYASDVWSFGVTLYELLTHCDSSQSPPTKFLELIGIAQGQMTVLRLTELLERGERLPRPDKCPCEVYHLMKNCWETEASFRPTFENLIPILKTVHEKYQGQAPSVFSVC
Sequence of MAP2K4 (human) (P45985 whole entry, looked up): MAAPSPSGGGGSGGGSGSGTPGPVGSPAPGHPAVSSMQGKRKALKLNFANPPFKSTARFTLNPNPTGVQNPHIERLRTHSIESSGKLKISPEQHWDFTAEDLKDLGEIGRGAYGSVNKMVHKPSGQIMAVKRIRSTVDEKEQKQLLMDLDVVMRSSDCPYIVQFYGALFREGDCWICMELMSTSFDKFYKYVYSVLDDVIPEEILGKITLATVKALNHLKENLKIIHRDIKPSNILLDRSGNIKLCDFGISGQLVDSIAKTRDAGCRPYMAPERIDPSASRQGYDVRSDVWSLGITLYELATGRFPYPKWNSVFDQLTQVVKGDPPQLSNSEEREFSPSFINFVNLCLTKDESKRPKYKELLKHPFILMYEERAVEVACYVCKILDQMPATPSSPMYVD
Sequence of CSNK2A1 (human) (P68400 whole entry, looked up): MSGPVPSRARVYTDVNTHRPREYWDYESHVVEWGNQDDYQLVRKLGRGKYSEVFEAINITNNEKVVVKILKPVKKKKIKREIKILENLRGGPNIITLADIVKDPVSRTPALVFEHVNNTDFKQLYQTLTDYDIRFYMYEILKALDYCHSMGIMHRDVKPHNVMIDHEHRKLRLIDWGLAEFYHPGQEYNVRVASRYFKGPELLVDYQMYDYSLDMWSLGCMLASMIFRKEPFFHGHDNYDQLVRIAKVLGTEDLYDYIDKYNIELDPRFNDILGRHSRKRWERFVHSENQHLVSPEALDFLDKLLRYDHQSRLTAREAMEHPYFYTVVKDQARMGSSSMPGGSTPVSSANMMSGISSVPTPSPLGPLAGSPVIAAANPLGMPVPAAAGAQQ

| Structure (SMILES) | kinase still bound, per cent of control [1] | kinase still bound, per cent of control [2] | kinase still bound, per cent of control [3] | kinase still bound, per cent of control [4] | kinase still bound, per cent of control [5] | kinase still bound, per cent of control [6] | kinase still bound, per cent of control [7] | kinase still bound, per cent of control [8] | kinase still bound, per cent of control [9] | kinase still bound, per cent of control [10] | kinase still bound, per cent of control [11] | kinase still bound, per cent of control [12] | kinase still bound, per cent of control [13] | kinase still bound, per cent of control [14] | kinase still bound, per cent of control [15] | kinase still bound, per cent of control [16] | kinase still bound, per cent of control [17] | kinase still bound, per cent of control [18] | kinase still bound, per cent of control [19] | kinase still bound, per cent of control [21] | other results |
| --- | --- | --- | --- | --- | --- | --- | --- | --- | --- | --- | --- | --- | --- | --- | --- | --- | --- | --- | --- | --- | --- |
| COc1cc(C)c(Sc2cnc(NC(=O)c3ccc(CNC(C)C(C)C)cc3)s2)cc1C(=O)N1CCN(C(C)=O)CC1 (centres undefined) | 100% | 100% | 100% | 100% | 100% | 100% | 100% | 100% | 100% | 100% | 100% | 4.9% | 100% | 100% | 100% | 100% | 25% | 100% | 3.2% | 100% | kinase still bound, per cent of control [20]: 24%; kinase still bound, per cent of control [22]: 20%; kinase still bound, per cent of control [23]: 100%; kinase still bound, per cent of control [24]: 13%; kinase still bound, per cent of control [25]: 100%; kinase still bound, per cent of control [26]: 100%; kinase still bound, per cent of control [27]: 100%; kinase still bound, per cent of control [28]: 100%; kinase still bound, per cent of control [29]: 100%; kinase still bound, per cent of control [30]: 100%; kinase still bound, per cent of control [31]: 100%; kinase still bound, per cent of control [32]: 100%; kinase still bound, per cent of control [33]: 1.2%; kinase still bound, per cent of control [34]: 100%; kinase still bound, per cent of control [35]: 100% |
| COc1ccc(N(C(=O)Oc2cc(C(=O)Nc3cccc(C(F)(F)F)c3)ccc2C)c2ccnc(Nc3ccc(N4CCN(C)CC4)cc3)n2)c(OC)c1 | 100% | 4% | 100% | 100% | 100% | 100% | 100% | 1.2% | 7% | 100% | 100% | 100% | 100% | 27% | 0.6% | 100% | 0.2% | 100% | 1.2% | 0% | kinase still bound, per cent of control [22]: 27%; kinase still bound, per cent of control [23]: 100%; kinase still bound, per cent of control [24]: 0%; kinase still bound, per cent of control [25]: 100%; kinase still bound, per cent of control [26]: 100%; kinase still bound, per cent of control [27]: 3.4%; kinase still bound, per cent of control [28]: 100%; kinase still bound, per cent of control [29]: 0.6%; kinase still bound, per cent of control [30]: 100%; kinase still bound, per cent of control [31]: 100%; kinase still bound, per cent of control [32]: 100%; kinase still bound, per cent of control [33]: 0.15%; kinase still bound, per cent of control [34]: 100%; kinase still bound, per cent of control [35]: 9.7% |
| COc1cc(N2CCC(C(N)=O)CC2)ccc1Nc1nc(N)c(Cl)c(Nc2ccccc2S(=O)(=O)C(C)C)n1 | 100% | 0.2% | 9% | 100% | 21% | 100% | 100% | 100% | 100% | 100% | 28% | 0.7% | 22% | 100% | 0.15% | 100% | 100% | 100% | 32% | 100% | kinase still bound, per cent of control [20]: 100%; kinase still bound, per cent of control [22]: 100%; kinase still bound, per cent of control [23]: 100%; kinase still bound, per cent of control [24]: 100%; kinase still bound, per cent of control [25]: 18%; kinase still bound, per cent of control [26]: 100%; kinase still bound, per cent of control [27]: 0.55%; kinase still bound, per cent of control [28]: 100%; kinase still bound, per cent of control [29]: 15%; kinase still bound, per cent of control [30]: 100%; kinase still bound, per cent of control [31]: 100%; kinase still bound, per cent of control [32]: 100%; kinase still bound, per cent of control [33]: 23%; kinase still bound, per cent of control [34]: 100%; kinase still bound, per cent of control [35]: 100% |

Source: the kinase profiling compilation of Christmann-Franck et al. (2016)
